Source: patent publication US20040086901A1, “Database for analyzing gene function and method of analyzing gene function by dspa” (priority 2000, published 2004)

Assays:
Type in all cases: cell-based, mouse
[1] = test system: NIH3T3 cells overexpressing erbB2; assay: MTT cell viability, erbB2 overexpressing cells vs parental line; settings: erbB2 high-expressing cells / parental cell line, 3 to 4 days
Protocol: (§1) With regard to the function-known genes, the genes shown in the left column of Table 2 were used. With regard to the drugs, those shown in Table 1 were dissolved in DMSO to an extent of 100-fold of the maximum concentration for the search of the drugs and used. With regard to the cells, incubated NIH3T3 or ras-NIH3T3 cells were used.
(§2) Full-length cDNA of each function-known genes was incorporated into an expression vector (pRc-CMV, etc.) and transfected into NIH3T3 cells by a common method. Transformed cells were isolated using the resistance to G-418 as an index and the expression of the transfected gene in each cell was investigated by Western blotting method to select a highly expressing line.
(§3) Cell viabilities were measured according to the following procedures.
(§4) 1) From the 2nd to the 11th rows of a 96-well plate were filled with DMEM (50 μl). The 12th row was filled with 100 μl of DMEM.
(§5) 2) The 1st row was filled with 98 μl of DMEM.
(§6) 3) Drugs (2 μl each) were added into the 1st row.
(§7) 4) Continuous double-dilution was conducted from the 1st to the 9th rows. Fifty μl were taken out from the 9th row and discarded. The plate was preserved in a CO2 incubator.
(§8) 5) Cells (each high-expressing cells and the parental cell line) were detached from the medium using a trypsin solution, suspended in 10% CS-DMEM and transferred to a test tube and cell numbers (cell/ml) were counted.
(§9) 6) The cells were diluted to a concentration of 1×10^5 cells/ml, and 50 μl of the cell suspension were added to the 1st to the 11th rows of the plate followed by gently stirring.
(§10) 7) The plate was transferred to the CO2 incubator and incubated for 3 to 4 days.
(§11) 8) MTT (5 mg/ml in PBS) (10 μl) was added to the 1st to the 12th rows of the plate and incubated in the CO2 incubator at 37° C. for 4 hours.
(§12) 9) A reaction stop solution (0.04N HCl in isopropanol) (150 μl) was added followed by mixing well and being allowed to stand at room temperature for about 2 hours.
(§13) 10) Coloration of formazan which was a metabolite of the MTT dye was measured using a microplate reader. The measurement wavelength was 574 nm and the reference wavelength was 655 nm. The 10th and the 11th rows of the plate were 100% controls and the 12th row was a 0% control.
(§14) As an index for the sensitivity of highly gene-expressing cells and the parental cell line to various drugs, each of the IC40 values thereof was specified and ratios of the IC40 values were calculated. FIG. 2 and FIG. 3 are the examples where ratios of IC40 values were calculated from a curve showing the dependency on the concentration of the chemical versus the viability. After that, logarithmic values of ratios of IC40 values were calculated from each gene.

[2] = test system: NIH3T3 cells overexpressing m-calpain; assay: MTT cell viability, m-calpain overexpressing cells vs parental line; settings: m-calpain high-expressing cells / parental cell line, 3 to 4 days
Protocol: as §1, §2, §3, §4, §5, §6, §7, §8, §9, §10, §11, §12, §13
(§15) As an index for the sensitivity of highly gene-expressing cells and the parental cell line to various drugs, each of the IC40 values thereof was specified and ratios of the IC40 values were calculated. […] After that, logarithmic values of ratios of IC40 values were calculated from each gene.

[3] = test system: NIH3T3 cells overexpressing JNK-DN; assay: MTT cell viability, JNK-DN overexpressing cells vs parental line; settings: JNK-DN high-expressing cells / parental cell line, 3 to 4 days
Protocol: as §1, §2, §3, §4, §5, §6, §7, §8, §9, §10, §11, §12, §13, §14

[4] = test system: NIH3T3 cells overexpressing CP-antisense; assay: MTT cell viability, CP-antisense cells vs parental line; settings: 3 to 4 days
Protocol: as §1, §2, §3, §4, §5, §6, §7, §8, §9, §10, §11, §12, §13, §14

[5] = test system: NIH3T3 cells overexpressing ERK-DN; assay: MTT cell viability, ERK-DN overexpressing cells vs parental line; settings: ERK-DN high-expressing cells / parental cell line, 3 to 4 days
Protocol: as §1, §2, §3, §4, §5, §6, §7, §8, §9, §10, §11, §12, §13, §15

[6] = test system: NIH3T3 cells overexpressing CaMKIIa; assay: MTT cell viability, CaMKIIa overexpressing cells vs parental line; settings: CaMKIIa high-expressing cells / parental cell line, 3 to 4 days
Protocol: as §1, §2, §3, §4, §5, §6, §7, §8, §9, §10, §11, §12, §13, §15

[7] = test system: NIH3T3 cells overexpressing Ha-ras; assay: MTT cell viability, drug sensitivity of Ha-ras overexpressing cells vs parental line; settings: Ha-ras high-expressing cells / parental cell line, 3 to 4 days
Protocol: as §1, §2, §3, §4, §5, §6, §7, §8, §9, §10, §11, §12, §13, §15

[8] = test system: NIH3T3 cells overexpressing HSP4O; assay: MTT cell viability, HSP4O overexpressing cells vs parental line; settings: HSP4O high-expressing cells / parental cell line, 3 to 4 days
Protocol: as §1, §2, §3, §4, §5, §6, §7, §8, §9, §10, §11, §12, §13, §14

[9] = test system: NIH3T3 cells overexpressing v-src; assay: MTT cell viability, v-src overexpressing cells vs parental line; settings: v-src high-expressing cells / parental cell line, 3 to 4 days
Protocol: as §1, §2, §3, §4, §5, §6, §7, §8, §9, §10, §11, §12, §13, §14

[10] = test system: NIH3T3 cells, TPA (PKC downreg); assay: MTT cell viability, TPA (PKC downreg) cells vs parental line; settings: 3 to 4 days
Protocol: as §1, §2, §3, §4, §5, §6, §7, §8, §9, §10, §11, §12, §13, §14

[11] = test system: NIH3T3 cells overexpressing Gluco-corticoid-R; assay: MTT cell viability, Gluco-corticoid-R overexpressing cells vs parental line; settings: Gluco-corticoid-R high-expressing cells / parental cell line, 3 to 4 days
Protocol: as §1, §2, §3, §4, §5, §6, §7, §8, §9, §10, §11, §12, §13, §15

[12] = test system: NIH3T3 cells overexpressing cAMP-PK-CS; assay: MTT cell viability, cAMP-PK-CS overexpressing cells vs parental line; settings: cAMP-PK-CS high-expressing cells / parental cell line, 3 to 4 days
Protocol: as §1, §2, §3, §4, §5, §6, §7, §8, §9, §10, §11, §12, §13, §15

[13] = test system: NIH3T3 cells overexpressing caspase-3; assay: MTT cell viability, caspase-3 overexpressing cells vs parental line; settings: caspase-3 high-expressing cells / parental cell line, 3 to 4 days
Protocol: as §1, §2, §3, §4, §5, §6, §7, §8, §9, §10, §11, §12, §13, §15

[14] = test system: NIH3T3 cells overexpressing PDGF-R; assay: MTT cell viability, PDGF-R overexpressing cells vs parental line; settings: PDGF-R high-expressing cells / parental cell line, 3 to 4 days
Protocol: as §1, §2, §3, §4, §5, §6, §7, §8, §9, §10, §11, §12, §13, §14

[15] = test system: NIH3T3 cells overexpressing HSP9O; assay: MTT cell viability, HSP9O overexpressing cells vs parental line; settings: HSP9O high-expressing cells / parental cell line, 3 to 4 days
Protocol: as §1, §2, §3, §4, §5, §6, §7, §8, §9, §10, §11, §12, §13, §14

[16] = test system: NIH3T3 cells overexpressing RhoA; assay: MTT cell viability, RhoA overexpressing cells vs parental line; settings: RhoA high-expressing cells / parental cell line, 3 to 4 days
Protocol: as §1, §2, §3, §4, §5, §6, §7, §8, §9, §10, §11, §12, §13, §14

[17] = test system: NIH3T3 cells overexpressing Regucalcin; assay: MTT cell viability, Regucalcin overexpressing cells vs parental line; settings: Regucalcin high-expressing cells / parental cell line, 3 to 4 days
Protocol: as §1, §2, §3, §4, §5, §6, §7, §8, §9, §10, §11, §12, §13, §14

[18] = test system: NIH3T3 cells overexpressing PKCalpha-KN; assay: MTT cell viability, PKCalpha-KN overexpressing cells vs parental line; settings: 3 to 4 days
Protocol: as §1, §2, §3, §4, §5, §6, §7, §8, §9, §10, §11, §12, §13, §15

[19] = test system: NIH3T3 cells overexpressing p16/INK4A; assay: MTT cell viability, p16/INK4A overexpressing cells vs parental line; settings: p16/INK4A high-expressing cells / parental cell line, 3 to 4 days
Protocol: as §1, §2, §3, §4, §5, §6, §7, §8, §9, §10, §11, §12, §13, §14

[20] = test system: NIH3T3 cells overexpressing DAN; assay: MTT cell viability, DAN overexpressing cells vs parental line; settings: DAN high-expressing cells / parental cell line, 3 to 4 days
Protocol: as §1, §2, §3, §4, §5, §6, §7, §8, §9, §10, §11, §12, §13, §14

[21] = PKCalpha-KN (first of two lines) high-expressing cells / parental cell line
[22] = PKCalpha-KN (second of two lines) high-expressing cells / parental cell line

| Molecule | logarithmic value of ratio of IC40 values [1] | logarithmic value of ratio of IC40 values [2] | logarithmic value of ratio of IC40 values [3] | logarithmic value of ratio of IC40 values [4] | logarithmic value of ratio of IC40 values [5] | logarithmic value of ratio of IC40 values [6] | logarithmic value of ratio of IC40 values [7] | logarithmic value of ratio of IC40 values [8] | logarithmic value of ratio of IC40 values [9] | logarithmic value of ratio of IC40 values [10] | logarithmic value of ratio of IC40 values [11] | logarithmic value of ratio of IC40 values [12] | logarithmic value of ratio of IC40 values [13] | logarithmic value of ratio of IC40 values [14] | logarithmic value of ratio of IC40 values [15] | logarithmic value of ratio of IC40 values [16] | logarithmic value of ratio of IC40 values [17] | logarithmic value of ratio of IC40 values [18, 21] | logarithmic value of ratio of IC40 values [18, 22] | logarithmic value of ratio of IC40 values [19] | other results |
| --- | --- | --- | --- | --- | --- | --- | --- | --- | --- | --- | --- | --- | --- | --- | --- | --- | --- | --- | --- | --- | --- |
| C[C@@H]1O[C@@H](O[C@H]2C[C@@H](O)[C@]3(CO)[C@H]4[C@H](O)C[C@]5(C)[C@@H](C6=CC(=O)OC6)CC[C@]5(O)[C@@H]4CC[C@]3(O)C2)[C@H](O)[C@H](O)[C@H]1O [Ouabain, ouabain] | 0.18 | 0.05 | −0.08 | 0.28 | 0.48 | 0.23 | 0.32 | 0.00 | 0.00 | −0.08 | 0.04 | 0.00 | 0.65 | 0.34 | 0.92 | 0.15 | −0.12 | 0.00 | 0.06 | 0.63 | logarithmic value of ratio of IC40 values [20]: 0.74 |
| CCCC[C@@H](C)/C=C(C)/C=C(\C)C(=O)NC1=C[C@@](O)(/C=C/C=C/C=C/C(=O)NC2=C(O)CCC2=O)[C@@H]2O[C@@H]2C1=O [Manumycin, manumycin] | −0.05 | 0.05 | −0.05 | 0.00 | −0.05 | 0.00 | −0.30 | −0.06 | 0.00 | 0.03 | 0.09 | 0.08 | 0.04 | 0.17 | −0.13 | −0.04 | 0.04 | 0.00 | 0.16 | 0.08 | logarithmic value of ratio of IC40 values [20]: 0.00 |
| sodium vanadate | −0.40 | −0.10 | −0.17 | 0.04 | 0.00 | −0.13 | −0.33 | −0.03 | 0.00 | −0.03 | 0.03 | 0.00 | 0.14 | 0.22 | 0.02 | 0.28 | 0.00 | 0.23 | 0.08 | 0.11 | logarithmic value of ratio of IC40 values [20]: 0.30 |
| C=C[C@]1(C)CC[C@@H](C(=C)C)C[C@H]1C(=C)C [b-elemene, β-elemene] | −0.46 | 0.00 | −0.04 | 0.00 | 0.33 | 0.16 | −0.26 | 0.02 | −0.35 | 0.00 | 0.00 | −0.10 | 0.28 | 0.00 | 0.05 | 0.00 | −0.09 | 0.07 | −0.07 | 0.12 | logarithmic value of ratio of IC40 values [20]: 0.04 |
